Measurements published in patent EP4759810A1, “PROTAC TARGETING BCL-XL PROTEIN AND USE THEREOF” (BEIJING SUNCELL BIO-MEDICAL CO., LTD., priority 2023, dated 2025).

Assay: Metabolic stability assay in liver microsomes (mouse)
Format: in vitro ADME
Procedure, shortened: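 Human or mouse liver microsomes at 0.5 mg/mL with 1 µM compound at 37 °C, plus or minus NADPH; samples at 0–60 min quenched in cold acetonitrile with internal standards, analysed by LC-MS/MS. Half-life and intrinsic clearance from linear fit of ln % remaining versus time.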

[1] = mouse liver microsomes 0.5 mg/mL, 1 µM compound, 37°C

Clint [1]: 4.30 µL/min/mg protein
half-life at 1 µM [1]: 5.37 h
microsomal CLint at 1 µM (mouse liver microsomes, read-out: clearance rate (metabolic clearance rate)): 4.3 µL/min/mg
Structure (SMILES): O=C1CCC(N2C(=O)c3cccc(NCCN4CCC(CN5CCN(CC#Cc6ccc(OCCCc7ccc(N8CCc9cccc(C(=O)Nc%10nc%11ccccc%11s%10)c9C8)nc7C(=O)O)c(F)c6)CC5)CC4)c3C2=O)C(=O)N1 (stereo not drawn) [APQ2]
